Here are results for one compound from patent US10660835B2, “Method for hair frizz reduction” (The Procter & Gamble Company, priority 2015, dated 2020).

The test can be described thus: DVS water uptake after soaking treatment. Particulars: pH 4.2, 40 deg C, at 90% RH. The protocol:
The Moisture Control Material is added into a 50:50 ethanol:water solvent at a concentration of 2% w/w and mixed until completely dissolved. The solution pH is adjusted with sodium hydroxide (50% w/w) to a final pH of 4.2. The soaking solution is kept at 40 deg C. for 2 hrs until a uniform composition is obtained.
One hair switch of natural virgin brown hair is placed in 200 ml of this solution for 2 hours in an oven set at 40° C. After the 2-hour period, the hair is removed, air dried and then tested for moisture uptake using DVS. For the control experiment, a natural brown virgin hair switch of the same weight is placed in a 50:50 ethanol:water solvent and treated under identical conditions.
The % water reduction is calculated as follows: […]
Hair is soaked in active solution of pH 4.2 for different intervals of time from 10 min to 2 hrs at 40 deg C. Hair Switches are air dried and prepared for % water reduction measurement using DVS vs. control (no active).

As for `O=C(O)c1cc(Cl)ccc1O` [5-Chlorosalicylic acid], the “% water reduction vs control” value (10 min soaking) was 9.6%; the “% water reduction vs control” value (20 min soaking) is 14.8%; the “% water reduction vs control” value (30 min soaking) was determined as 19%; the “% water reduction vs control” value (1 hr soaking) is on record as 26%; the “% water reduction vs control” value (2 hr soaking) is given as 30%.
